{
  "source": "paper PMC11873239",
  "about": "“A covalent chemical probe for Chikungunya nsP2 cysteine protease with antialphaviral activity and proteome-wide selectivity” (Scientific Reports, 2025)",
  "type_in_all_cases": "binding",
  "key": {"[1]": {"target": "HEK293 cell lysate proteins and CHIKV nsP2 (Homo sapiens, UniProt P46013)"}, "[2]": {"target": "HEK293 cell lysate proteins and CHIKV nsP2 (Homo sapiens, UniProt A8K2U0)"}, "[3]": {"target": "HEK293 cell lysate proteins and CHIKV nsP2 (Homo sapiens, UniProt Q9UHB7)"}, "[4]": {"target": "HEK293 cell lysate proteins and CHIKV nsP2 (Homo sapiens, UniProt Q92616)"}, "[5]": {"target": "HEK293 cell lysate proteins and CHIKV nsP2 (Homo sapiens, UniProt P01040)"}, "[6]": {"target": "HEK293 cell lysate proteins and CHIKV nsP2 (Homo sapiens, UniProt Q99459)"}, "[7]": {"target": "HEK293 cell lysate proteins and CHIKV nsP2 (Homo sapiens, UniProt P08621)", "sequence (P08621 whole entry)": "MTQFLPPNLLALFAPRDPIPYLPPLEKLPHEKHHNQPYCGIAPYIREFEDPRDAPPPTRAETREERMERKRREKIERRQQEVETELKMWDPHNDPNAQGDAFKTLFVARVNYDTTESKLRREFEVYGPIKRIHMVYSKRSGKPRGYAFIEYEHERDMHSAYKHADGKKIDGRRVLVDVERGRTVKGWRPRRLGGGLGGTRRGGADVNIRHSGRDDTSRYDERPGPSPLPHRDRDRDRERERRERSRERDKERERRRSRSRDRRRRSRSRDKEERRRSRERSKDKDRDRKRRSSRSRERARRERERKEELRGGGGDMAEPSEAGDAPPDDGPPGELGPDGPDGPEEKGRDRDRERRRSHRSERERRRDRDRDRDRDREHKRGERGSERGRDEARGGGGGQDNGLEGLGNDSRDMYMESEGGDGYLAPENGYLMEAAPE"}, "[8]": {"target": "HEK293 cell lysate proteins and CHIKV nsP2 (Homo sapiens, UniProt O75223)"}, "[9]": {"target": "HEK293 cell lysate proteins and CHIKV nsP2 (Homo sapiens, UniProt P07339)", "sequence (P07339 65-412)": "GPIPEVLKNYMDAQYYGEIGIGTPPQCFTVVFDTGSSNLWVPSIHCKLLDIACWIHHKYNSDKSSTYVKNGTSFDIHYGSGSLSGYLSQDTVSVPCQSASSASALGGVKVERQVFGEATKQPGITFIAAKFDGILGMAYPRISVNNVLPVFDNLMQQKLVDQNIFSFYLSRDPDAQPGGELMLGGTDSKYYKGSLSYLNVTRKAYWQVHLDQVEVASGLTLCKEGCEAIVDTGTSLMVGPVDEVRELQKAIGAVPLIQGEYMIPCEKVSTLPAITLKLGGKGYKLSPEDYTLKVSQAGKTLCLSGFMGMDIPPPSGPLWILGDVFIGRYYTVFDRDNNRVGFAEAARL"}, "[10]": {"target": "HEK293 cell lysate proteins and CHIKV nsP2 (Homo sapiens, UniProt O75342)"}, "[11]": {"target": "HEK293 cell lysate proteins and CHIKV nsP2 (Homo sapiens, UniProt Q14151)"}, "[12]": {"target": "HEK293 cell lysate proteins and CHIKV nsP2 (Homo sapiens, UniProt P10599)"}, "[13]": {"target": "HEK293 cell lysate proteins and CHIKV nsP2 (Homo sapiens, UniProt P11388)"}, "[14]": {"target": "HEK293 cell lysate proteins and CHIKV nsP2 (Homo sapiens, UniProt P04259)"}, "[15]": {"target": "HEK293 cell lysate proteins and CHIKV nsP2 (Homo sapiens, UniProt Q14241)", "sequence (Q14241 whole entry)": "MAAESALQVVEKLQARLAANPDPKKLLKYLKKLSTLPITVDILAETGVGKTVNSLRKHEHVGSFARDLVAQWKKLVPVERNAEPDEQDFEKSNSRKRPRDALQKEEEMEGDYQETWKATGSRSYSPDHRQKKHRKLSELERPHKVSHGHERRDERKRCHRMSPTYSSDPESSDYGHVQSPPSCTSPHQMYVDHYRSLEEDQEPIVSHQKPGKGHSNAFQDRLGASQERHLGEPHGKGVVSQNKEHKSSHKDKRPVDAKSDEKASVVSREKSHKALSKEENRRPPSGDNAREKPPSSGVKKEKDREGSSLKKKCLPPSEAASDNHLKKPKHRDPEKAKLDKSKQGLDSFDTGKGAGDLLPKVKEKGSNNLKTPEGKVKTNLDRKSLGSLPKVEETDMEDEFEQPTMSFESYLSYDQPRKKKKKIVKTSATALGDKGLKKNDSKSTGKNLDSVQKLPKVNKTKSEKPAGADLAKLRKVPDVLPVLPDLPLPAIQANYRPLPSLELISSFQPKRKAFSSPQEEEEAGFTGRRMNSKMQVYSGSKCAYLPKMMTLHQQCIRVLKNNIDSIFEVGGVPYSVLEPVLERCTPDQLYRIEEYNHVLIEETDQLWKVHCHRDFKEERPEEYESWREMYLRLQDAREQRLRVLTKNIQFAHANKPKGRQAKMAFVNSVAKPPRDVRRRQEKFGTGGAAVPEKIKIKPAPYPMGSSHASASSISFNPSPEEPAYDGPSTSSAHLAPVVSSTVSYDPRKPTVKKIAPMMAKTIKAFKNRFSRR"}, "[16]": {"target": "HEK293 cell lysate proteins and CHIKV nsP2 (Homo sapiens, UniProt Q6KC79)"}, "[17]": {"target": "HEK293 cell lysate proteins and CHIKV nsP2 (Homo sapiens, UniProt Q08554)"}, "[18]": {"target": "HEK293 cell lysate proteins and CHIKV nsP2 (Homo sapiens, UniProt P27708)"}, "[19]": {"target": "HEK293 cell lysate proteins and CHIKV nsP2 (Homo sapiens, UniProt P25311)"}, "[20]": {"target": "HEK293 cell lysate proteins and CHIKV nsP2 (Homo sapiens, UniProt Q5T749)"}, "[21]": {"target": "HEK293 cell lysate proteins and CHIKV nsP2 (Homo sapiens, UniProt Q9Y5B9)"}, "[22]": {"target": "HEK293 cell lysate proteins and CHIKV nsP2 (Homo sapiens, UniProt P31025)"}, "[23]": {"target": "HEK293 cell lysate proteins and CHIKV nsP2 (Homo sapiens, UniProt P60709)"}, "[24]": {"target": "HEK293 cell lysate proteins and CHIKV nsP2 (Homo sapiens, UniProt O60814)"}, "[25]": {"target": "HEK293 cell lysate proteins and CHIKV nsP2 (Homo sapiens, UniProt Q12872)"}, "[26]": {"target": "HEK293 cell lysate proteins and CHIKV nsP2 (Homo sapiens, UniProt O60524)", "sequence (O60524 whole entry)": "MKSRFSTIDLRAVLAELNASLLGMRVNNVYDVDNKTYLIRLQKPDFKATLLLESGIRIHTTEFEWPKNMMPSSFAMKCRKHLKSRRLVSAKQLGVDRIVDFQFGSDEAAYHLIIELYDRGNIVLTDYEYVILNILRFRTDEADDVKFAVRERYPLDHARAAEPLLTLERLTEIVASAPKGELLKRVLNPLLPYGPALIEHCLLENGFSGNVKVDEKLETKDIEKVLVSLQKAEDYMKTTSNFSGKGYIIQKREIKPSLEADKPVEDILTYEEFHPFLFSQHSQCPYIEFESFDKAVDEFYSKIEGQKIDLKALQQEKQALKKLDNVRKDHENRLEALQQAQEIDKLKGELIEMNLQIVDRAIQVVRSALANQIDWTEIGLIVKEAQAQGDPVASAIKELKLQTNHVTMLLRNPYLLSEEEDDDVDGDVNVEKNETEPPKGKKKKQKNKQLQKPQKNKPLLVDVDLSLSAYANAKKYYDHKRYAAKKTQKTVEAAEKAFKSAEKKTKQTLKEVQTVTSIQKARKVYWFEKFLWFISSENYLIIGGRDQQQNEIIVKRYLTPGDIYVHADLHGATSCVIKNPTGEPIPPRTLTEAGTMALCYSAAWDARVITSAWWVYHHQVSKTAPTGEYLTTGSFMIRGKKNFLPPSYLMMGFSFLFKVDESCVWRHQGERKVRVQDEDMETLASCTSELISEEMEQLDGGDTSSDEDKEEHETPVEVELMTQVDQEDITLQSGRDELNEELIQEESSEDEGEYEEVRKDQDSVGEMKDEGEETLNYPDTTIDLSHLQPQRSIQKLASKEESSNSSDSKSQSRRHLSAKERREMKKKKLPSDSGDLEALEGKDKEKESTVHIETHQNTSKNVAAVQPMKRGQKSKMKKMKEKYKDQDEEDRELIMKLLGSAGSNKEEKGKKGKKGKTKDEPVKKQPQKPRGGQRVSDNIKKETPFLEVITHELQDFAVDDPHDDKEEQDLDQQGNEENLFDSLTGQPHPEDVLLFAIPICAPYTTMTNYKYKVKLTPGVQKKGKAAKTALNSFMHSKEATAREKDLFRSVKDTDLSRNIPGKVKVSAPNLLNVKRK"}, "[27]": {"target": "HEK293 cell lysate proteins and CHIKV nsP2 (Homo sapiens, UniProt P26368)"}, "[28]": {"target": "HEK293 cell lysate proteins and CHIKV nsP2 (Homo sapiens, UniProt P22735)"}, "[29]": {"target": "HEK293 cell lysate proteins and CHIKV nsP2 (Homo sapiens, UniProt P12273)"}, "[30]": {"target": "HEK293 cell lysate proteins and CHIKV nsP2 (Homo sapiens, UniProt P31151)", "sequence (P31151 whole entry)": "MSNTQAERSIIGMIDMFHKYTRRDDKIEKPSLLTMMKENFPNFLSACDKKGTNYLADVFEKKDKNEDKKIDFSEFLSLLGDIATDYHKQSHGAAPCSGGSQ"}, "[31]": {"target": "HEK293 cell lysate proteins and CHIKV nsP2 (Homo sapiens, UniProt O60231)"}, "[32]": {"target": "HEK293 cell lysate proteins and CHIKV nsP2 (Homo sapiens, UniProt Q08188)", "sequence (Q08188 whole entry)": "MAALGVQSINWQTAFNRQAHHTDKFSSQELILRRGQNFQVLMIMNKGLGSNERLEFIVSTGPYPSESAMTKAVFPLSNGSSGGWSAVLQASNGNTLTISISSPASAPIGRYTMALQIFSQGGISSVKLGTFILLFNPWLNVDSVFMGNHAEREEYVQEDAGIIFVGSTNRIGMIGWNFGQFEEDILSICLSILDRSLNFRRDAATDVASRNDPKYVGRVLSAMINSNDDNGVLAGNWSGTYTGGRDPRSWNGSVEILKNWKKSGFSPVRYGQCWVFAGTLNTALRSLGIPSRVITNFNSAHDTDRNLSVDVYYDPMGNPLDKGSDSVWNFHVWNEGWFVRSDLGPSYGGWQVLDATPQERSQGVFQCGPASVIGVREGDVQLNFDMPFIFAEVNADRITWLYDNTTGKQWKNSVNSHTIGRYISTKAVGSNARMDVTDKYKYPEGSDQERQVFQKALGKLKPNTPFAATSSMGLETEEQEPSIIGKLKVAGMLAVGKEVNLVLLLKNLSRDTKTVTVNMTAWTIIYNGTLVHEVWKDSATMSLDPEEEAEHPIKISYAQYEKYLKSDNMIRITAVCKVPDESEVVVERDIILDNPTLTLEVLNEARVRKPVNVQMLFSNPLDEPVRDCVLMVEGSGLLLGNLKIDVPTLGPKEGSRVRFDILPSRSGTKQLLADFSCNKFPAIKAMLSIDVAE"}, "[33]": {"target": "HEK293 cell lysate proteins and CHIKV nsP2 (Homo sapiens, UniProt P04406)"}, "[34]": {"target": "HEK293 cell lysate proteins and CHIKV nsP2 (Homo sapiens, UniProt P06702)", "sequence (P06702 whole entry)": "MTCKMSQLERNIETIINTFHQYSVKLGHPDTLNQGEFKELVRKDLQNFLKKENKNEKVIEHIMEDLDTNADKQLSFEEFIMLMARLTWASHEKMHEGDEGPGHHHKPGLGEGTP"}, "[35]": {"target": "HEK293 cell lysate proteins and CHIKV nsP2 (Homo sapiens, UniProt Q13428)", "sequence (Q13428 whole entry)": "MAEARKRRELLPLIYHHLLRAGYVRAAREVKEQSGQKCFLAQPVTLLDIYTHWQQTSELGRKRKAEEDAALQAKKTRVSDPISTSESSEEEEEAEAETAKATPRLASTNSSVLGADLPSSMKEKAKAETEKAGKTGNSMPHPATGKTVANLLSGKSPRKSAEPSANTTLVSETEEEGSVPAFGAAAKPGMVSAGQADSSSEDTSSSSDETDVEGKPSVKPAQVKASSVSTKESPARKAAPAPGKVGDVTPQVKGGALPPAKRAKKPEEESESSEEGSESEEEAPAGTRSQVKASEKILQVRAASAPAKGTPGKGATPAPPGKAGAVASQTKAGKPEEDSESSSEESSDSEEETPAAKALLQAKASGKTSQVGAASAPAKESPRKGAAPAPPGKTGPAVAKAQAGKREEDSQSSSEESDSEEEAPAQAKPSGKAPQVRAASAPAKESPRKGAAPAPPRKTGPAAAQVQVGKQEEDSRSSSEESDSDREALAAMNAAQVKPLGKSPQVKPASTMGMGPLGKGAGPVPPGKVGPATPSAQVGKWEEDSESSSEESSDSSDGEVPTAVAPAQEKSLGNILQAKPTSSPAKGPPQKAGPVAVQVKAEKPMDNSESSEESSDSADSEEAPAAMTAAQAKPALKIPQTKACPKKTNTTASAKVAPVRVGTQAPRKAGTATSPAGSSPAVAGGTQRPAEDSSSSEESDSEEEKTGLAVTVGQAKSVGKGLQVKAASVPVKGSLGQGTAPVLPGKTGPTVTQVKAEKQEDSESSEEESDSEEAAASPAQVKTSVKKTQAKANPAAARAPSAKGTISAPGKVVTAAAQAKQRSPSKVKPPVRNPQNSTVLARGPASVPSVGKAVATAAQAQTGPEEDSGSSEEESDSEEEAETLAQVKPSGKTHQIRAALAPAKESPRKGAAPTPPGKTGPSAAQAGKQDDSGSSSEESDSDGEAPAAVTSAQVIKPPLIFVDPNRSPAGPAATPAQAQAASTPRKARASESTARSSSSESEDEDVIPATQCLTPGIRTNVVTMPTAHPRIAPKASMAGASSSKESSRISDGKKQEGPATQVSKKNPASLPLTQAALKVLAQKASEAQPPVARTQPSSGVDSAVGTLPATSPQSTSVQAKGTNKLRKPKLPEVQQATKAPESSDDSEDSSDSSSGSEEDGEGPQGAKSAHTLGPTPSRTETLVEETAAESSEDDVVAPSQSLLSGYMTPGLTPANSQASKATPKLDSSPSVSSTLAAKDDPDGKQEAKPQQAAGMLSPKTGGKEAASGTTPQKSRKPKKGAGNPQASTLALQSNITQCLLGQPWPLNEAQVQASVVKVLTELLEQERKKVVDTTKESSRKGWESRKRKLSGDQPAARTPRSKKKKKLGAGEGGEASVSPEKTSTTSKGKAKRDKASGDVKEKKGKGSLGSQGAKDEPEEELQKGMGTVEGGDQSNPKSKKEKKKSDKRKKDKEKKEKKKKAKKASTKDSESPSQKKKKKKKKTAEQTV"}, "[36]": {"target": "HEK293 cell lysate proteins and CHIKV nsP2 (Homo sapiens, UniProt Q9UKV3)"}},
  "note": "Where “and” joins values, the source holds several entries; their conditions need not be identical. Equal values may be shown once.",
  "data": [
    {"smiles": "C#CCOc1ccccc1-c1cc(C(=O)NC/C=C/S(C)(=O)=O)on1", "note": "[VS, (E)-N-(3-(methylsulfonyl)allyl)−3-(2-(prop-2-yn-1-yloxy)phenyl)isoxazole-5-carboxamide]", "values": [
      {"measurement": "Log2 fold change", "setting": "[1]", "result": 0.64},
      {"measurement": "Log2 fold change", "setting": "[2]", "result": 1.10},
      {"measurement": "Log2 fold change", "setting": "[3]", "result": -0.42},
      {"measurement": "Log2 fold change", "setting": "[4]", "result": -2.86},
      {"measurement": "Log2 fold change", "setting": "[5]", "result": 1.75},
      {"measurement": "Log2 fold change", "setting": "[6]", "result": -0.00878},
      {"measurement": "Log2 fold change", "setting": "[7]", "result": 3.47},
      {"measurement": "Log2 fold change", "setting": "[8]", "result": 0.96},
      {"measurement": "Log2 fold change", "setting": "[9]", "result": 1.67},
      {"measurement": "Log2 fold change", "setting": "[10]", "result": 2.14},
      {"measurement": "Log2 fold change", "setting": "[11]", "result": 1.50},
      {"measurement": "Log2 fold change", "setting": "[12]", "result": 1.84},
      {"measurement": "Log2 fold change", "setting": "[13]", "result": -1.34},
      {"measurement": "Log2 fold change", "setting": "[14]", "result": 3.24},
      {"measurement": "Log2 fold change", "setting": "[15]", "result": -1.01},
      {"measurement": "Log2 fold change", "setting": "[16]", "result": -0.34},
      {"measurement": "Log2 fold change", "setting": "[17]", "result": 0.93},
      {"measurement": "Log2 fold change", "setting": "[18]", "result": 3.37},
      {"measurement": "Log2 fold change", "setting": "[19]", "result": 1.43},
      {"measurement": "Log2 fold change", "setting": "[20]", "result": 2.53},
      {"measurement": "Log2 fold change", "setting": "[21]", "result": -3.45},
      {"measurement": "Log2 fold change", "setting": "[22]", "result": 1.54},
      {"measurement": "Log2 fold change", "setting": "[23]", "result": 1.54},
      {"measurement": "Log2 fold change", "setting": "[24]", "result": -1.93},
      {"measurement": "Log2 fold change", "setting": "[25]", "result": -1.75},
      {"measurement": "Log2 fold change", "setting": "[26]", "result": -0.75},
      {"measurement": "Log2 fold change", "setting": "[27]", "result": -0.62},
      {"measurement": "Log2 fold change", "setting": "[28]", "result": 1.60},
      {"measurement": "Log2 fold change", "setting": "[29]", "result": 1.00},
      {"measurement": "Log2 fold change", "setting": "[30]", "result": -1.22},
      {"measurement": "Log2 fold change", "setting": "[31]", "result": 4.33},
      {"measurement": "Log2 fold change", "setting": "[32]", "result": 1.61},
      {"measurement": "Log2 fold change", "setting": "[33]", "result": 1.78},
      {"measurement": "Log2 fold change", "setting": "[34]", "result": 1.63},
      {"measurement": "Log2 fold change", "setting": "[35]", "result": "1.02 and 1.32"},
      {"measurement": "Log2 fold change", "setting": "[36]", "result": -1.88}
    ]}
  ]
}
